The results in this text go back to US20140243286A1, “BROMODOMAIN LIGANDS CAPABLE OF DIMERIZING IN AN AQUEOUS SOLUTION, AND METHODS OF USING SAME” (Coferon, Inc., priority 2011, published 2014).

One assay addresses BRD3 (Homo sapiens, UniProt Q15059). In words: Fluorescence anisotropy (FA) binding assay, BRD3. On the procedure: (§1) Fluorescence Anisotropy (FA) Binding Assays.
(§2) FA assays were performed as described in Chung et al., J. Med Chem., 2011 54(11): 3827-38 except that protein concentrations were 125 nM and plates were read on a Spectramax M5 plate reader.
For orientation: Fluorescence polarisation rises when a labelled molecule tumbles more slowly, as on binding a larger partner.

The target in a further assay is BRD2 (Homo sapiens, UniProt P25440). As to the kind of experiment: Fluorescence anisotropy (FA) binding assay, BRD2. On the procedure:
as §1, §2

In the next assay the target is BRD4 (Homo sapiens, UniProt O60885). In words: Fluorescence anisotropy (FA) binding assay, BRD4. Here is the method:
as §1, §2

Setting [1] is: BRD3, protein 125 nM, read-out: IC50 range (FA assay) BRD3, BRD-E monomers.
Where [2] appears, read: BRD2, protein 125 nM, read-out: IC50 range (FA assay) BRD2, BRD-E monomers.
[3] abbreviates: BRD4, protein 125 nM, read-out: IC50 range (FA assay) BRD4, BRD-E monomers.
[4] abbreviates: BRD3, protein 125 nM, read-out: IC50 range (FA assay) BRD3, BRD-N monomers.
Setting [5] is: BRD2, protein 125 nM, read-out: IC50 range (FA assay) BRD2, BRD-N monomers.
[6] abbreviates: BRD4, protein 125 nM, read-out: IC50 range (FA assay) BRD4, BRD-N monomers.

Like-named read-outs stand apart in the source and are kept apart here.

BRD2, sequence (P25440 whole entry): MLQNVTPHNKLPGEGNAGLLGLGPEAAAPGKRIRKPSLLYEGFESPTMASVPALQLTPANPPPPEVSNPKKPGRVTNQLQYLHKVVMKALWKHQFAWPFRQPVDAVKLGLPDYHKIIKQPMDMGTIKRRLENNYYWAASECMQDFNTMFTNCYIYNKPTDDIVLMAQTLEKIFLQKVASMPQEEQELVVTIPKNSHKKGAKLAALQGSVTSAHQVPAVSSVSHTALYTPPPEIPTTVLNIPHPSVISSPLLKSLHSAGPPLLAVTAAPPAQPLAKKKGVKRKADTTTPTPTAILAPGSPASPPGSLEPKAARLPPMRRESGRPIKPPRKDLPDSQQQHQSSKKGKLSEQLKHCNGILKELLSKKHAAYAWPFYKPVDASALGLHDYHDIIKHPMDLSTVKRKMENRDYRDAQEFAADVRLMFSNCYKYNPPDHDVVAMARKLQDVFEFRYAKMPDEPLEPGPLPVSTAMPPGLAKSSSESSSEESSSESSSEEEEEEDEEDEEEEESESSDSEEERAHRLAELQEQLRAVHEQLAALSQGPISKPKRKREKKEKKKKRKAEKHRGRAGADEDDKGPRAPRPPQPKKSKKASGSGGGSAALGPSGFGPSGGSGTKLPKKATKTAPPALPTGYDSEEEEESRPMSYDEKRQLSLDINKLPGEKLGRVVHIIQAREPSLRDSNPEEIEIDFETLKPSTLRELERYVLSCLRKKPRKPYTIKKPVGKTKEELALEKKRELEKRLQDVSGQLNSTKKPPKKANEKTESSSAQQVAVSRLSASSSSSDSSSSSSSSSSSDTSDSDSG
BRD3, sequence (Q15059 whole entry): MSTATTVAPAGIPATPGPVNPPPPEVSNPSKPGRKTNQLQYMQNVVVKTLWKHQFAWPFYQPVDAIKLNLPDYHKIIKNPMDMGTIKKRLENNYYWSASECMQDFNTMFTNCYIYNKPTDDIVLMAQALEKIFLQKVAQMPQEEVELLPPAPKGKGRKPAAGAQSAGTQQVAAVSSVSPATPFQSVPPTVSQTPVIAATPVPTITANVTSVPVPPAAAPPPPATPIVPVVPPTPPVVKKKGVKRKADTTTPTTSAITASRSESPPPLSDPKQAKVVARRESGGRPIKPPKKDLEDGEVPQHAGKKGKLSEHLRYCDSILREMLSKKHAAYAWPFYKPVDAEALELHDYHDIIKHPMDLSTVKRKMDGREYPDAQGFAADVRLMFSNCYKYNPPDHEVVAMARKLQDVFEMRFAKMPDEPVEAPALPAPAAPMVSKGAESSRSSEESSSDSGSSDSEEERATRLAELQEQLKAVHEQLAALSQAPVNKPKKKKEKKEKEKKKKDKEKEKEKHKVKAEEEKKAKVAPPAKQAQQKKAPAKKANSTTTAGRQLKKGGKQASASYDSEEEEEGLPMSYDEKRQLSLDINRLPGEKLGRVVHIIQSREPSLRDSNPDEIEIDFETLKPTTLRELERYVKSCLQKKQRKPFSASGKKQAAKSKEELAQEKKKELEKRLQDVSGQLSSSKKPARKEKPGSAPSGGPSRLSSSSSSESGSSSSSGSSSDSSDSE

For the compound `CCNC(=O)C[C@@H]1N=C(c2ccc(Cl)cc2)c2cc(OCCCCC(=O)Nc3cccc(B(O)O)c3)ccc2-n2c(C)nnc21` [BRD-E-20, (S)-(3-(5-((6-(4-chlorophenyl)-4-(2-(ethylamino)-2-oxoethyl)-1-methyl-4H-benzo[f][1,2,4]triazolo[4,3-a][1,4]diazepin-8-yl)oxy)pentanamido)phenyl)boronic acid], the IC50 at BRD3 (setting [1]), at BRD2 (setting [2]) and at BRD4 (setting [3]) was 0.05 to 1 µM throughout.

As for `CCNC(=O)C[C@@H]1N=C(c2ccc(Cl)cc2)c2cc(OCCNC(=O)c3cccc(B(O)O)c3)ccc2-n2c(C)nnc21` [BRD-E-21, (S)-(3-((2-((6-(4-chlorophenyl)-4-(2-(ethylamino)-2-oxoethyl)-1-methyl-4H-benzo[f][1,2,4]triazolo[4,3-a]diazepin-8-yl)oxy)ethyl)carbamoyl)phenyl)boronic acid], the IC50 on BRD3 (setting [1]), on BRD2 (setting [2]) and on BRD4 (setting [3]) was 0.05 to 1 µM in each case.

For the compound `CCNC(=O)C[C@@H]1N=C(c2ccc(Cl)cc2)c2cc(OCCNC(=O)c3ccc(B(O)O)cc3)ccc2-n2c(C)nnc21` [BRD-E-22, (S)-(4-((2-((6-(4-chlorophenyl)-4-(2-(ethylamino)-2-oxoethyl)-1-methyl-4H-benzo[f][1,2,4]triazolo[4,3-a]diazepin-8-yl)oxy)ethyl)carbamoyl)phenyl)boronic acid], the IC50 on BRD3 (setting [1]), on BRD2 (setting [2]) and at BRD4 (setting [3]) was 0.05 to 1 µM in each case.

For the compound `CCNC(=O)C[C@@H]1N=C(c2ccc(Cl)cc2)c2cc(OCCCNC(=O)c3cccc(B(O)O)c3)ccc2-n2c(C)nnc21` [BRD-E-23, (S)-(3-((3-((6-(4-chlorophenyl)-4-(2-(ethylamino)-2-oxoethyl)-1-methyl-4H-benzo[f][1,2,4]triazolo[4,3-a][1,4]diazepin-8-yl)oxy)propyl)carbamoyl)phenyl)boronic acid], the IC50 at BRD3 (setting [1]), at BRD2 (setting [2]) and on BRD4 (setting [3]) was 1 to 30 µM in each case.

Take `CCNC(=O)C[C@@H]1N=C(c2ccc(Cl)cc2)c2cc(OCCCNC(=O)c3ccc(B(O)O)cc3)ccc2-n2c(C)nnc21` [BRD-E-24, (S)-(4-((3-((6-(4-chlorophenyl)-4-(2-(ethylamino)-2-oxoethyl)-1-methyl-4H-benzo[f][1,2,4]triazolo[4,3-a][1,4]diazepin-8-yl)oxy)propyl)carbamoyl)phenyl)-boronic acid]: the IC50 on BRD3 (setting [1]) fell in the range of 0.05 to 1 µM; at BRD2 (setting [2]), 1 to 30 µM; on BRD4 (setting [3]) it was 0.05 to 1 µM.

Consider `CCNC(=O)C[C@@H]1N=C(c2ccc(Cl)cc2)c2cc(OCCCCNC(=O)c3cccc(B(O)O)c3)ccc2-n2c(C)nnc21` [BRD-E-25, (S)-(3-((4-((6-(4-chlorophenyl)-4-(2-(ethylamino)-2-oxoethyl)-1-methyl-4H-benzo[f][1,2,4]triazolo[4,3-a][1,4]diazepin-8-yl)oxy)butyl)carbamoyl)phenyl)boronic acid], for which the IC50 on BRD3 (setting [1]), on BRD2 (setting [2]) and at BRD4 (setting [3]) was 1 to 30 µM each time.

On to `CCNC(=O)C[C@@H]1N=C(c2ccc(Cl)cc2)c2cc(OCCCCNC(=O)c3ccc(B(O)O)cc3)ccc2-n2c(C)nnc21` [BRD-E-26, (S)-(4-((4-((6-(4-chlorophenyl)-4-(2-(ethylamino)-2-oxoethyl)-1-methyl-4H-benzo[f][1,2,4]triazolo[4,3-a][1,4]diazepin-8-yl)oxy)butyl)carbamoyl)phenyl)boronic acid], for which the IC50 at BRD3 (setting [1]), on BRD2 (setting [2]) and at BRD4 (setting [3]) was 0.05 to 1 µM throughout.

Turning to `COc1ccc2c(c1)C(c1ccc(Cl)cc1)=N[C@@H](CC(=O)NCCNC(=O)/C=C/c1ccc(B(O)O)cc1)c1nnc(C)n1-2` [BRD-E-29, (4-((E)-3-((2-(2-((4S)-6-(4-chlorophenyl)-8-methoxy-1-methyl-4H-benzo[f][1,2,4]triazolo[4,3-a][1,4]diazepin-4-yl)acetamido)ethyl)amino)-3-oxoprop-1-en-1-yl)phenyl)boronic acid], the IC50 on BRD3 (setting [1]), on BRD2 (setting [2]) and at BRD4 (setting [3]) was 0.05 to 1 µM each time.

Regarding `COc1ccc2c(c1)C(c1ccc(Cl)cc1)=N[C@@H](CC(=O)NCCNC(=O)c1cccc(-c3cccc(B(O)O)c3)c1)c1nnc(C)n1-2` [BRD-E-31, (3′-((2-(2-((4S)-6-(4-chlorophenyl)-8-methoxy-1-methyl-4H-benzo[f][1,2,4]triazolo[4,3-a][1,4]diazepin-4-yl)acetamido)ethyl)carbamoyl)-[1,1′-biphenyl]-3-yl)boronic acid], the IC50 at BRD3 (setting [1]), on BRD2 (setting [2]) and on BRD4 (setting [3]) was 0.05 to 1 µM each time.

In the case of `COc1ccc2c(c1)C(c1ccc(Cl)cc1)=N[C@@H](CC(=O)NCCNC(=O)Cc1cccc(B(O)O)c1)c1nnc(C)n1-2` [BRD-E-38, (3-(2-((2-(2-((4S)-6-(4-chlorophenyl)-8-methoxy-1-methyl-4H-benzo[f][1,2,4]triazolo[4,3-a][1,4]diazepin-4-yl)acetamido)ethyl)amino)-2-oxoethyl)phenyl)boronic acid], the IC50 at BRD3 (setting [1]), on BRD2 (setting [2]) and at BRD4 (setting [3]) was 0.05 to 1 µM in each case.

`COc1ccc2c(c1)C(c1ccc(Cl)cc1)=N[C@@H](CC(=O)NCCNC(=O)c1ccc(O)c(O)c1)c1nnc(C)n1-2` [BRD-N-01, N-(2-(2-((4S)-6-(4-chlorophenyl)-8-methoxy-1-methyl-4H-benzo[f][1,2,4]triazolo[4,3-a][1,4]diazepin-4-yl)acetamido)ethyl)-3,4-dihydroxybenzamide]: the IC50 at BRD3 (setting [4]), at BRD2 (setting [5]) and on BRD4 (setting [6]) was 0.05 to 1 µM in each case.

As for `COc1ccc2c(c1)C(c1ccc(Cl)cc1)=N[C@@H](CC(=O)NCCNC(=O)c1cccc(O)c1O)c1nnc(C)n1-2` [BRD-N-02, N-(2-(2-((4S)-6-(4-chlorophenyl)-8-methoxy-1-methyl-4H-benzo[f][1,2,4]triazolo[4,3-a][1,4]diazepin-4-yl)acetamido)ethyl)-2,3-dihydroxybenzamide], the IC50 at BRD3 (setting [4]), on BRD2 (setting [5]) and on BRD4 (setting [6]) was 0.05 to 1 µM each time.

In the case of `COc1ccc2c(c1)C(c1ccc(Cl)cc1)=N[C@@H](CC(=O)NCCCNC(=O)c1ccc(O)c(O)c1)c1nnc(C)n1-2` [BRD-N-03, N-(3-(2-((4S)-6-(4-chlorophenyl)-8-methoxy-1-methyl-4H-benzo[f][1,2,4]triazolo[4,3-a][1,4]diazepin-4-yl)acetamido)propyl)-3,4-dihydroxybenzamide], the IC50 at BRD3 (setting [4]), on BRD2 (setting [5]) and at BRD4 (setting [6]) was 0.05 to 1 µM in each case.

With `COc1ccc2c(c1)C(c1ccc(Cl)cc1)=N[C@@H](CC(=O)NCCCNC(=O)c1cccc(O)c1O)c1nnc(C)n1-2` [BRD-N-04, N-(3-(2-((4S)-6-(4-chlorophenyl)-8-methoxy-1-methyl-4H-benzo[f][1,2,4]triazolo[4,3-a][1,4]diazepin-4-yl)acetamido)propyl)-2,3-dihydroxybenzamide], the IC50 on BRD3, at BRD2 and at BRD4 was 0.05 to 1 µM each time.

Turning to `COc1ccc2c(c1)C(c1ccc(Cl)cc1)=N[C@@H](CC(=O)NCCCCNC(=O)c1ccc(O)c(O)c1)c1nnc(C)n1-2` [BRD-N-05, N-(4-(2-((4S)-6-(4-chlorophenyl)-8-methoxy-1-methyl-4H-benzo[f][1,2,4]triazolo[4,3-a][1,4]diazepin-4-yl)acetamido)butyl)-3,4-dihydroxybenzamide], the IC50 on BRD3, on BRD2 and on BRD4 was 0.05 to 1 µM each time.

Take `COc1ccc2c(c1)C(c1ccc(Cl)cc1)=N[C@@H](CC(=O)NCCCCNC(=O)c1cccc(O)c1O)c1nnc(C)n1-2` [BRD-N-06, N-(4-(2-((4S)-6-(4-chlorophenyl)-8-methoxy-1-methyl-4H-benzo[f][1,2,4]triazolo[4,3-a][1,4]diazepin-4-yl)acetamido)butyl)-2,3-dihydroxybenzamide]: the IC50 fell in the range of 1 to 30 µM on BRD3, 0.05 to 1 µM at BRD2 and 0.05 to 1 µM at BRD4.

Turning to `COc1ccc2c(c1)C(c1ccc(Cl)cc1)=N[C@@H](CC(=O)NCCCCCNC(=O)c1ccc(O)c(O)c1)c1nnc(C)n1-2` [BRD-N-07, N-(5-(2-((4S)-6-(4-chlorophenyl)-8-methoxy-1-methyl-4H-benzo[f][1,2,4]triazolo[4,3-a][1,4]diazepin-4-yl)acetamido)pentyl)-3,4-dihydroxybenzamide], the IC50 on BRD3 (setting [4]), at BRD2 (setting [5]) and on BRD4 (setting [6]) was 0.05 to 1 µM in each case.

For the compound `COc1ccc2c(c1)C(c1ccc(Cl)cc1)=N[C@@H](CC(=O)NCCCCCNC(=O)c1cccc(O)c1O)c1nnc(C)n1-2` [BRD-N-08, N-(5-(2-((4S)-6-(4-chlorophenyl)-8-methoxy-1-methyl-4H-benzo[f][1,2,4]triazolo[4,3-a][1,4]diazepin-4-yl)acetamido)pentyl)-2,3-dihydroxybenzamide], the half-maximal inhibitory concentration (IC50) at BRD3 (setting [4]), at BRD2 (setting [5]) and at BRD4 (setting [6]) was 0.05 to 1 µM throughout.

`COc1ccc2c(c1)C(c1ccc(Cl)cc1)=N[C@@H](CC(=O)NCc1ccc(O)c(O)c1)c1nnc(C)n1-2` [BRD-N-09, (S)-2-(6-(4-chlorophenyl)-8-methoxy-1-methyl-4H-benzo[f][1,2,4]triazolo[4,3-a][1,4]diazepin-4-yl)-N-(3,4-dihydroxybenzyl)acetamide]: the IC50 at BRD3 (setting [4]), on BRD2 (setting [5]) and on BRD4 (setting [6]) was 0.05 to 1 µM each time.

Usually IC50 stands for the concentration that inhibits the measured activity by half.
